{"source": "patent US6352824B1", "about": "“Redox reversible bipyridyl-osmium complex conjugates” (Roche Diagnostics Corporation, priority 1998, dated 2002)", "key": {"[1]": {"target": "T1, HbAlc epitope of hemoglobin in lysed blood (Homo sapiens, UniProt P68871)", "T1 construct": "from tissue; host or cells: whole blood, lysed (freeze/thaw) and denatured", "T1 sequence (P68871 2-147 limits assumed)": "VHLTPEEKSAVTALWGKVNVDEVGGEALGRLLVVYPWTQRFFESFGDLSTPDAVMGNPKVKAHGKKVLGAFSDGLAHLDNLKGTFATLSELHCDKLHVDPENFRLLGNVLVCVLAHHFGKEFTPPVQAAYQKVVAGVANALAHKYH", "test": "Blood denaturing for electrochemical HbAlc immunoassay", "excerpt": "Blood lysis is necessary to release the hemoglobin followed by denaturing to expose the HbAlc epitope. Lysis can easily be accomplished via surfactants, osmotic effects of dilution with water, and directly by many denaturants. […] Conversely, denaturing the lysed blood with a variety of known denaturants to expose the HbAlc epitope has shown significant suppression of the electrochemical response, inhibiting measurement of an HbAlc dose response.\nDenaturing the sample for antibody recognition without severely fouling the electrode surface is important for successful development of an HbAlc immunoassay. Although LiSCN has been used almost exclusively to show feasibility, it has many limitations that would hinder its use in the disposable. Citric acid, a solid at RT may offer benefits as a denaturant if it could be dried onto a strip followed by a diluent to adjust the pH to neutral. Acid or base blood denaturing followed by a final pH adjustment with a buffered diluent is an area worth further evaluation. One problem that was initially encountered was precipitation in adjusting the pH back to neutral, which can be overcome by using a different buffer or with the addition of surfactants."}, "[2]": {"tested_on": "MAB (monoclonal HbAlc antibody)", "test": "Inhibition of osmium mediator label current with antibody", "format": "binding", "protocol": "(§1) Polyclonal DE (ion-exchange) purified sheep antibody is used in the TinaQuant HbAlc assay. IS (immunosorbent) antibody is prepared using standard IS purification methodology. Samples of a monoclonal antibody were also obtained for evaluation. Inhibition curves were performed in solution with all mixing occurring in microcentrifuge tubes. Inhibition curves with the three hemoglobin Alc antibodies (PAB IS, PAB DE, and MAB) were generated by fixing OS—DSG—Alc at 5 μM and varying the antibody concentration. […] From the inhibition curves we were able to select reasonable concentrations of antibody for maximum reversal with Alc samples.\n(§2) While these feasibility studies for a HbAlc immunoassay used an enzyme mediated amplification method. (Glucdor/PQQ/glucose was used to regenerate reduced mediator after oxidation at the electrode surface providing a higher diffusion controlled current is given by the cottrell equation), they are considered to be indicative of results attainable with the use of IDA electrodes with bipotentiostatic control in accordance with this invention."}, "[3]": {"test": "Storage stability of osmium mediator-peptide conjugates", "conditions": "for Stability in solution: stored as solution", "procedure": "Stability of the mediator labels were also evaluated by monitoring % inhibition values over time."}, "[4]": {"tested_on": "PAB IS (polyclonal immunosorbent purified HbAlc antibody)", "test": "Inhibition of osmium mediator label current with antibody", "format": "binding, sheep", "excerpt": "3. Antibodies for the analytes (HbAlc and HbA0) which react specifically with the N-terminal peptides which have been incorporated into the conjugate are provided by standard methods for producing polyclonal antibodies. In this case, sheep were immunized with carrier proteins to which were conjugated the synthetic peptide sequences for HbAlc and HbA0. Following the appropriate immunization schedule, the sheep were bled, and the antibody isolated from the blood via ion exchange chromatography, followed by immunosorbent purification on a column of the same N-terminal peptide with a different linker.\nas §1\nWhile these feasibility studies for a HbAlc immunoassay used an enzyme mediated amplification method. […]"}, "[5]": {"tested_on": "PAB DE (polyclonal ion-exchange purified HbAlc antibody)", "test": "Inhibition of osmium mediator label current with antibody", "format": "binding, sheep", "protocol": "as §1, §2"}, "Sheep B<HBA0>": {"tested_on": "Sheep B<HBA0>", "test": "Inhibition of osmium mediator label current with antibody", "format": "binding", "excerpt": "HbAlc assay requires measuring both Al c concentration and total hemoglobin concentration and reports the results as a ratio of these two measurements (%HbAlc). It is advantageous to assay both Alc and total hemoglobin using same principle because ratioing would minimize biases due to environmental effects. Thus antibody has been raised to bind specifically to hemoglobins with unglycosylated N-terminus, i.e. with an epitope sequence of Val-His-Leu-Thr(SEQ ID NO:5). Similarly, nonnative amino acid is added to the sequence to facilitate conjugation. The peptides used for total hemoglobin measurement is termed as A0 peptide. A0 peptides that have been used in the preparation of Os mediator-peptide conjugates include Val-His-Leu-Thr-Cys(SEQ ID NO:6) and Val-His-Leu-Thr-Lys(SEQ ID NO:7)."}, "HbA0 antibody": {"tested_on": "HbA0 antibody", "test": "Inhibition reversal with A0HB-peptide#1", "format": "binding", "procedure": "(§3) Mediator concentration dose response, inhibition with antibody and reversal with a BSA—Alc polyhaptan were evaluated and summarized in Table 5."}, "Zymed rabbit antibodies": {"tested_on": "Zymed rabbit antibodies", "test": "Inhibition of osmium mediator label current with antibody", "format": "binding", "procedure": "as §3"}, "glucose oxidase": {"target": "glucose oxidase (Aspergillus niger, UniProt P13006)", "sequence (P13006 17-605, species assumed)": "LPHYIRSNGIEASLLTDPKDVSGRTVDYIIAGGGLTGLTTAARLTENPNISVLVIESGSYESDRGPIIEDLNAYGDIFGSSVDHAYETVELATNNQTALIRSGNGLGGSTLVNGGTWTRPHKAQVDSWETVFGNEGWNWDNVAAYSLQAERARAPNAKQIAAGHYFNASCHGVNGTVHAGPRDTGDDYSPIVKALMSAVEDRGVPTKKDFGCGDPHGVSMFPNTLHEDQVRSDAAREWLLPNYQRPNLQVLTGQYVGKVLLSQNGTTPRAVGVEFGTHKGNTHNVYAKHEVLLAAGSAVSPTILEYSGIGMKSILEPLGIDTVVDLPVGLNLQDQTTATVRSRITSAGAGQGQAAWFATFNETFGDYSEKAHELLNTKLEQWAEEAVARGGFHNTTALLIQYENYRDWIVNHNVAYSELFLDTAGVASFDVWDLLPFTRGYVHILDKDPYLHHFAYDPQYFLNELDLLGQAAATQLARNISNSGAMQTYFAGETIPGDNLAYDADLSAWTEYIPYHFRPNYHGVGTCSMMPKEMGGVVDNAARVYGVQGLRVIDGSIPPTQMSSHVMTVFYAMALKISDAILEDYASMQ", "conditions": "with glucose oxidase; cited from earlier work"}}, "data": [{"compound": "Cl", "note": "[Hydrochloric Acid]", "values": [{"measurement": "Evidence of blood denaturing", "setting": "[1]", "value": "Evidence of blood denaturing was seen by all: “solution"}]}, {"compound": "N#C[S-].[K+]", "note": "[KSCN]", "values": [{"measurement": "Blood HbAlc dose response with denatured blood", "setting": "[1]", "value": "Initial work did not show a dose response with KSCN"}]}, {"compound": "N#C[S-].[Li+]", "note": "[LiSCN]", "values": [{"measurement": "Blood HbAlc dose response with denatured blood", "setting": "[1]", "value": "able to expose the Alc epitope and minimize protein fouling enough to measure an HbAlc dose response"}]}, {"compound": "[Na+].[OH-]", "note": "[NaOH]", "values": [{"measurement": "Evidence of blood denaturing", "setting": "[1]", "value": "Evidence of denaturing: “solution turned brown.”"}]}, {"compound": "CC(C)CC(NC(=O)C(Cc1cnc[nH]1)NC(=O)C(NCC1(O)OCC(O)C(O)C1O)C(C)C)C(=O)NC(C(=O)NC(CCCCNC(=O)CCCC(=O)NCCc1c[n+]([Os]23([Cl])([n+]4ccccc4-c4cccc[n+]42)[n+]2ccccc2-c2cccc[n+]23)c[nH]1)C(=O)O)C(C)O", "note": "(stereo not drawn) [Os-DSG-Alc]", "values": [{"measurement": "Inhibition with Antibody MAB", "setting": "[2]", "value": "MAB (≦78%)"}, {"measurement": "Stability in lyophilized form", "setting": "[3]; lyophilized", "value": "stable"}, {"measurement": "Stability frozen in solution", "setting": "[3]; −20° C., 40 and 80 μM", "value": "stable"}, {"measurement": "Inhibition with Antibody PAB IS", "setting": "[4]", "value": "PAB IS (≦91%)"}, {"measurement": "Inhibition with Antibody PAB DE", "setting": "[5]", "value": "PAB DE (≦87%)"}]}, {"compound": "CC(C)CC(NC(=O)C(Cc1cnc[nH]1)NC(=O)C(N)C(C)C)C(=O)NC(C(=O)NC(CCCCNC(=O)CCCCCN1C(=O)CC(SCC(=O)NCCc2c[n+]([Os]34([Cl])([n+]5ccccc5-c5cccc[n+]53)[n+]3ccccc3-c3cccc[n+]34)c[nH]2)C1=O)C(=O)O)C(C)O", "note": "(stereo not drawn) [Os-SATA-A0]", "values": [{"measurement": "Inhibition with Antibody Sheep B<HBA0>", "setting": "Sheep B<HBA0>", "value": "≤ 84", "unit": "%"}, {"measurement": "Stability in solution", "setting": "[3]", "value": "unstable in solu-"}, {"measurement": "Reversal", "setting": "HbA0 antibody", "value": "No"}, {"measurement": "Inhibition with Zymed rabbit antibodies", "setting": "Zymed rabbit antibodies", "value": "No"}]}, {"compound": "CC(C)CC(NC(=O)C(Cc1cnc[nH]1)NC(=O)C(NCC1(O)OCC(O)C(O)C1O)C(C)C)C(=O)NC(C(=O)NC(CCCCNC(=O)CCCCCN1C(=O)CC(SCC(=O)NCCc2c[n+]([Os]34([Cl])([n+]5ccccc5-c5cccc[n+]53)[n+]3ccccc3-c3cccc[n+]34)c[nH]2)C1=O)C(=O)O)C(C)O", "note": "(stereo not drawn) [Os-SATA-Alc]", "values": [{"measurement": "Stability in solution", "setting": "[3]", "value": "Stability similar"}, {"measurement": "Inhibition with Antibody PAB IS", "setting": "[4]", "value": "PAB IS (≦44%)"}]}, {"compound": "[O-][Cl+3]([O-])([O-])O", "note": "[Perchloric Acid]", "values": [{"measurement": "Evidence of blood denaturing", "setting": "[1]", "value": "Evidence of blood denaturing was seen by all: “solution"}]}, {"compound": "O=S(=O)(O)O", "note": "[Sulfuric Acid]", "values": [{"measurement": "Evidence of blood denaturing", "setting": "[1]", "value": "Evidence of blood denaturing was seen by all: “solution"}]}, {"compound": "CCCCCCCCCCCCCC[N+](C)(C)C.[Br-]", "note": "[TTAB, Tetra decyltrimethyl ammonium bromide]", "values": [{"measurement": "Evidence of blood denaturing", "setting": "[1]", "value": "Evidence of denaturing: “solution turned green”"}]}, {"compound": "O=C(O)CC(O)(CC(=O)O)C(=O)O", "note": "[citric acid]", "values": [{"measurement": "Blood HbAlc dose response with denatured blood", "setting": "[1]", "value": "able to expose the Alc epitope and minimize protein fouling enough to measure an HbAlc dose response"}, {"measurement": "Evidence of blood denaturing", "setting": "[1]", "value": "Evidence of blood denaturing was seen by all: “solution"}]}, {"compound": "bis(bipyridyl) imidazolyl chloroosmium", "values": [{"measurement": "mediation kinetics relative to ferricyanide", "setting": "glucose oxidase", "value": "about 500 times faster"}]}]}
